{"source": "patent US4098995A", "about": "“Polygalactosido-sucrose Poly(H-)sulfate salts” (American Cyanamid Company, priority 1976, dated 1978)", "key": {"activated human C1": {"molecular_target": "activated human C1 (Homo sapiens, UniProt P09871)", "test": "Test, Code 026 (C1 inhibitor)", "assay_type": "biochemical", "details": "serial two-fold dilution assay, higher well number indicates higher activity", "source_text": "(§1) An active inhibitor protects C2 from C1 and C4; (ii) Test, Code 035 (C3-C9 inhibitor) - This test determines the ability of the late components of human complement (C3-C9) to lyse EAC 142 in the presence of appropriate dilutions of the test compound. An active inhibitor protects EAC 142 from lysis by human C3-C9; (iii) Test, Code 036 (C-Shunt inhibitor) -- In this test human erythrocytes rendered fragile are lysed in autologous serum via the shunt pathway activated by cobra venom factor in the presence of appropriate dilutions of the test compound. Inhibition of the shunt pathway results in failure of lysis; (iv) Forssman Vasculitis Test -- Here, the well known complement dependent lesion, Forssman vasculitis, is produced in guinea pigs by intradermal injection of rabbit anti-Forssman antiserum. The lesion is measured in terms of diameter, edema and hemorrhage and the extent to which a combined index of these is inhibited by prior intraperitoneal injection of the test compound at 200 mg/kg is then reported, unless otherwise stated; (v) Forssman Shock Test -- Lethal shock is produced in guinea pigs by an i.v. injection of anti-Forssman antiserum and the harmonic mean death time of treated guinea pigs is compared with that of simultaneous controls; (vi) Complement Level Reduction Test -- In this test, the above dosed guinea pigs, or others, are bled for serum and the complement level is determined in undiluted serum by the capillary tube method of U.S. Pat. No. 3,876,376 and compared to undosed control guinea pigs; and (vii) Cap 50 Test -- Here, appropriate amounts of the test compound are added to a pool of guinea pig serum in vitro, after which the undiluted serum capillary tube assay referred to above is run. The concentration of compound inhibiting 50% is reported.\n(§2) **Activity in wells, a serial dilution assay. Higher well numer indicates\n(§3) higher activity. The serial dilutions are two-fold."}, "[1]": {"tested_on": "late components of human complement (C3-C9)", "test": "Test, Code 035 (C3-C9 inhibitor), lysis of EAC 142 by late complement components", "assay_type": "cell-based", "details": "serial two-fold dilution assay; higher well number indicates higher activity", "source_text": "as §1, §2, §3"}, "shunt pathway": {"tested_on": "shunt pathway", "test": "Test, Code 036 (C-Shunt inhibitor), lysis of fragile human erythrocytes via shunt pathway activated by cobra venom factor", "assay_type": "cell-based", "details": "serial two-fold dilution assay, higher well number indicates higher activity", "source_text": "as §1, §2, §3"}, "whole complement": {"tested_on": "whole complement", "test": "Complement Level Reduction Test in dosed guinea pigs (serum whole complement, capillary tube assay)", "assay_type": "in vivo, guinea pig", "details": "200 mg/kg"}, "[2]": {"details": "literature; cited from earlier work"}, "complement [3]": {"tested_on": "complement", "test": "Complement inhibiting activity, tests disclosed herein"}, "complement [4]": {"tested_on": "complement", "details": "literature; cited from earlier work"}}, "note": "Values joined by “and” are separate entries in the source; they are usually repeats but may differ in a detail not shown here. Equal entries are not always repeated. Structures can show the parent of a compound that is named as a salt.", "data": [{"compound": "O=S(=O)(O)OC[C@H]1O[C@H](OC[C@H]2O[C@H](O[C@]3(COS(=O)(=O)O)O[C@H](COS(=O)(=O)O)[C@@H](OS(=O)(=O)O)[C@@H]3OS(=O)(=O)O)[C@H](OS(=O)(=O)O)[C@@H](OS(=O)(=O)O)[C@@H]2OS(=O)(=O)O)[C@H](OS(=O)(=O)O)[C@@H](OS(=O)(=O)O)[C@H]1OS(=O)(=O)O", "note": "[Raffinose Poly(H-)sulfate Triethylamine Salt]", "values": [{"measurement": "In Vitro Activity 026 (activity in wells)", "setting": "activated human C1", "result": "10 wells and 9 wells"}, {"measurement": "In Vitro Activity 035", "setting": "[1]", "result": "N"}, {"measurement": "In Vitro Activity 036", "setting": "shunt pathway", "result": "N"}]}, {"compound": "O=S(=O)(O)OC[C@H]1O[C@H](OC[C@H]2O[C@H](O[C@]3(COS(=O)(=O)O)O[C@H](COS(=O)(=O)O)[C@@H](OS(=O)(=O)O)[C@@H]3OS(=O)(=O)O)[C@H](OS(=O)(=O)O)[C@@H](OS(=O)(=O)O)[C@@H]2OS(=O)(=O)O)[C@H](OS(=O)(=O)O)[C@@H](OS(=O)(=O)O)[C@H]1OS(=O)(=O)O", "note": "[Raffinose Poly(H--)sulfate Sodium Salt, Raffinose Poly(H-)sulfate Sodium Salt]", "values": [{"measurement": "In Vitro Activity 026 (activity in wells)", "setting": "activated human C1; Sodium Salt", "result": 9, "unit": "wells"}, {"measurement": "In Vitro Activity 036", "setting": "shunt pathway; Sodium Salt", "result": 1, "unit": "wells"}]}, {"compound": "O=S(=O)(O)OC[C@H]1O[C@H](OC[C@H]2O[C@H](OC[C@H]3O[C@H](O[C@]4(COS(=O)(=O)O)O[C@H](COS(=O)(=O)O)[C@@H](OS(=O)(=O)O)[C@@H]4OS(=O)(=O)O)[C@H](OS(=O)(=O)O)[C@@H](OS(=O)(=O)O)[C@@H]3OS(=O)(=O)O)[C@H](OS(=O)(=O)O)[C@@H](OS(=O)(=O)O)[C@H]2OS(=O)(=O)O)[C@H](OS(=O)(=O)O)[C@@H](OS(=O)(=O)O)[C@H]1OS(=O)(=O)O", "note": "[Stachyose Poly(H--)sulfate Sodium Salt, Stachyose Poly(H-)sulfate Sodium Salt]", "values": [{"measurement": "In Vitro Activity 026 (activity in wells)", "setting": "activated human C1; Sodium Salt", "result": "13 wells and 11 wells"}, {"measurement": "In Vitro Activity 035", "setting": "[1]", "result": "N"}, {"measurement": "In Vitro Activity 036", "setting": "shunt pathway; Sodium Salt", "result": "4 wells and 2 wells"}, {"measurement": "In Vivo Activity (Guinea Pig) Percent Inhibition", "setting": "whole complement; intraperitoneal, Time (Hours) 30", "result": -47, "unit": "%"}, {"measurement": "In Vivo Activity (Guinea Pig) Percent Inhibition", "setting": "whole complement; intraperitoneal, Time (Hours) 60", "result": -56, "unit": "%"}, {"measurement": "In Vivo Activity (Guinea Pig) Percent Inhibition", "setting": "whole complement; intraperitoneal, Time (Hours) 120", "result": -65, "unit": "%"}, {"measurement": "In Vivo Activity (Guinea Pig) Percent Inhibition", "setting": "whole complement; intravenous, Time (Hours) 2", "result": -86, "unit": "%"}, {"measurement": "In Vivo Activity (Guinea Pig) Percent Inhibition", "setting": "whole complement; intravenous, Time (Hours) 30", "result": -93, "unit": "%"}, {"measurement": "In Vivo Activity (Guinea Pig) Percent Inhibition", "setting": "whole complement; intravenous, Time (Hours) 120", "result": -17, "unit": "%"}]}, {"compound": "O=S(=O)(O)OC[C@H]1O[C@H](OC[C@H]2O[C@H](OC[C@H]3O[C@H](O[C@]4(COS(=O)(=O)O)O[C@H](COS(=O)(=O)O)[C@@H](OS(=O)(=O)O)[C@@H]4OS(=O)(=O)O)[C@H](OS(=O)(=O)O)[C@@H](OS(=O)(=O)O)[C@@H]3OS(=O)(=O)O)[C@H](OS(=O)(=O)O)[C@@H](OS(=O)(=O)O)[C@H]2OS(=O)(=O)O)[C@H](OS(=O)(=O)O)[C@@H](OS(=O)(=O)O)[C@H]1OS(=O)(=O)O", "note": "[Stachyose Poly(H--)sulfate Triethylamine Salt] [Stachyose Poly(H-)sulfate Triethylamine Salt]", "values": [{"measurement": "In Vitro Activity 026 (activity in wells)", "setting": "activated human C1", "result": 14, "unit": "wells"}, {"measurement": "In Vitro Activity 035", "setting": "[1]", "result": "N"}, {"measurement": "In Vitro Activity 036", "setting": "shunt pathway", "result": 2, "unit": "wells"}]}, {"compound": "O=S(=O)(O)OC[C@H]1O[C@H](OC[C@H]2O[C@H](OC[C@H]3O[C@H](O[C@]4(COS(=O)(=O)O)O[C@H](COS(=O)(=O)O)[C@@H](OS(=O)(=O)O)[C@@H]4OS(=O)(=O)O)[C@H](OS(=O)(=O)O)[C@@H](OS(=O)(=O)O)[C@@H]3OS(=O)(=O)O)[C@H](OS(=O)(=O)O)[C@@H](OS(=O)(=O)O)[C@H]2OS(=O)(=O)O)[C@H](OS(=O)(=O)O)[C@@H](OS(=O)(=O)O)[C@H]1OS(=O)(=O)O", "note": "[Stachyose Poly(H--)sulfate Trimethylamine Salt] [Stachyose Poly(H-)sulfate Trimethylamine Salt]", "values": [{"measurement": "In Vitro Activity 026 (activity in wells)", "setting": "activated human C1", "result": "11 wells and 12 wells"}, {"measurement": "In Vitro Activity 035", "setting": "[1]", "result": "N"}]}, {"compound": "NCCCCCC(=O)O", "note": "[epsilon-aminocaproic acid]", "values": [{"measurement": "treatment of hereditary angioneurotic edema", "setting": "[2]", "result": "used with success"}]}, {"compound": "NC[C@H]1CC[C@H](C(=O)O)CC1", "note": "[tranexamic acid]", "values": [{"measurement": "treatment of hereditary angioneurotic edema", "setting": "[2]", "result": "used with success"}]}, {"compound": "Stachyose trisulfate", "values": [{"measurement": "complement inhibiting activity", "setting": "complement [3]", "result": "found lacking in complement inhibiting activity"}]}, {"compound": "heparin", "values": [{"measurement": "complement inhibiting activity (reported)", "setting": "complement [4]", "result": "reported as having complement inhibiting activity"}]}, {"compound": "pentosan polysulfo ester", "values": [{"measurement": "complement inhibiting activity (reported)", "setting": "complement [4]", "result": "reported as having complement inhibiting activity"}]}]}
